# Reference: a melting point compilation (Tetko et al.; mined from patent text by program, amines drawn as free bases though some values may be those of a salt)
row,SMILES,melting point
1,NC(=O)C1CCN(C(=O)CNC(=O)CN2CCCC2=O)CC1,217 to 219 °C
2,O=C(O)CCOc1ccccc1CNC(=O)C1Cc2ccccc2N1S(=O)(=O)c1ccc(-c2cccc(C(F)(F)F)c2)cc1 (configuration not stated),100 °C
3,O=C1Cc2cccc3c2N1C(C(F)(F)F)=C(F)S3,128 to 130 °C
4,CCCCCCCCCCCCCCCCOCC(CO)Oc1cc(-c2ccccc2)on1 (configuration not stated),45.5 to 46.5 °C
5,O=C(O)c1cn(C2CC2)c2c(F)c(N3CCNC(CF)C3)c(F)c(F)c2c1=O (configuration not stated),219 to 220 °C
6,COc1cnc(C(=O)Cc2c(Cl)cncc2Cl)cc1OC1CCCC1,132 °C
7,O=C(O)CCc1cc(OCc2ccccc2)nn1Cc1ccc(Cl)cc1Cl,98 to 101 °C
8,O=C(O)c1cc([N+](=O)[O-])cc([N+](=O)[O-])c1Nc1cc(-c2ccccc2)ccc1O,215 to 217 °C
9,COc1ccc2c(c1)CCC(=C(O)C(F)F)C2=O,52 to 54 °C
10,CCCOc1ccc(-c2ncc(C#N)c(Cl)n2)cc1,193 to 194 °C
11,O=c1[nH]c2c(Cl)cccc2c(=O)n1CCCN1CC2CCC(C1)N2c1ccc(Cl)cc1,167 to 169 °C
12,COC(=O)C1=Cc2cccc(C(F)F)c2OCC1,97 to 99 °C
13,CCCC(N)CC(=O)O (configuration not stated),203 °C
14,C(=C\c1ncno1)/c1ccccc1,53 to 55 °C
15,CN1CCN(c2ccccc2C=C2C(=O)N(Cc3ccc(Cl)c(Cl)c3)c3ccccc32)CC1,120 to 124 °C
16,O=Cc1ccc(O)c(O)c1Cl,193 to 195 °C
17,Cc1nc2c(s1)C(=O)C(=CN1CCOCC1)CC2,186 to 187 °C
18,Fc1cc(Br)c(OCc2ccccc2)c(Br)c1,83 °C
19,Cc1cn(-c2ccc(N)cc2C(F)(F)F)cn1,141 to 143 °C
20,CC(C)S(=O)(=O)c1cnc2c(c1)nc(CC(C)(C)C)n2CC1(O)CCOCC1,179 °C
21,CC(=O)NC[C@H]1CN(c2ccc(N3CCC(n4cc(C=O)nn4)CC3)c(F)c2)C(=O)O1,168 to 170 °C

row,SMILES,melting point
1,Cn1cnc(COc2nc3c(cc2-c2ccsc2)nnn3-c2ccccc2F)n1,174 to 176 °C
2,COc1cccc(-c2cn(N=Cc3ccccc3)c(N)n2)c1,170 to 171 °C
3,COc1ccc(C2(C#Cc3cccc(-c4noc(C(F)(F)F)n4)c3)CCCC(=O)C2)cc1OC1CCCC1 (configuration not stated),99 to 100 °C
4,N#CSCC(=O)N1CCCCC1,78 to 79 °C
5,CCCN(CCC)c1nsc(NC(=O)NC)c1C#N,179 to 180 °C
6,N#CNC(=N)NC1CCCc2ccccc21 (configuration not stated),153 to 155 °C
7,CC(C)OC(=O)c1nnc2n1-c1ccc(Cl)cc1C(c1ccccc1Cl)=NC2,229 to 230 °C
8,CCc1cc(SCc2cccc3sc(-c4ccc(C(F)(F)F)cc4)nc23)ccc1OCC(=O)O,89 to 92 °C
9,N#Cc1nn(-c2c(Cl)cc(C(F)(F)F)cc2Cl)cc1C=O,168 °C
10,O=C(Nc1ccc(N2CCOCC2)cc1)c1ccccc1C(c1ccc(O)cc1)c1ccc(O)cc1,151 to 155 °C
11,O=C(O)Cc1ccc(CCNC(=O)C2Cc3ccccc3N2S(=O)(=O)c2ccc(-c3cccc(C(F)(F)F)c3)cc2)cc1 (configuration not stated),110 °C
12,CC(=O)Nc1nc(CCc2ccc(CCl)cc2)c(Cc2ccc(S(C)(=O)=O)cc2)s1,202 to 203 °C
13,Brc1cccc(-c2cc3nccnc3[nH]2)c1,247 to 249 °C
14,O=C(CCCCC1(C(=O)O)CCCC1)CCCCC1(C(=O)O)CCCC1,99 to 103 °C
15,NC(c1ncn(N)n1)C1CCN(CC2COc3ccccc3O2)CC1 (configuration not stated),157 to 158 °C
16,COc1ccccc1NC(=O)c1nc2c(s1)CN(C)CC2,196 to 198 °C
17,COc1ccc(-c2n[nH]c(=O)cc2-c2ccc(OC)c(F)c2)cc1,213 °C
18,O=c1ccc(C(F)(F)F)cn1-c1ccc(NCCO)cc1Cl,161 to 164 °C
19,c1ccc(CN2CCC(Nc3ccc4[nH]ncc4c3)CC2)cc1,150 to 152 °C
20,C=Cc1ccc2[nH]cc(S(=O)(=O)c3ccccc3)c2c1,140 to 145 °C
21,O=C(O)CCCCCOc1cc(-c2ccccc2)cc(-c2ccccc2)c1,104 °C

row,SMILES,melting point
1,COc1ccccc1-c1cccc(-n2cnc(-c3nc(C)no3)c2)c1,97.1 to 101 °C
2,CCCCc1oc2ccccc2c1C(=O)Nc1ccc(-c2ccc(OCC#N)cc2)cc1,143 to 144 °C
3,Nc1ncccc1-c1nc2ccc(-c3ccncc3)nc2n1-c1ccc(CNC(=O)c2ccccc2)cc1,231 to 233 °C
4,COCCN1CCN(CCc2ccc(Nc3ncc4c(n3)-c3ccccc3[C@H](c3ccc(F)cc3)C4)cc2)CC1,195 to 198 °C
5,O=S1(=O)c2ccccc2NC(CO)c2cccn21 (configuration not stated),135 to 136 °C
6,CCOC(=O)c1ncc2[nH]c3ccc(C4=CC(=O)CCC4)cc3c2c1C,245 to 248 °C
7,Clc1nccc(N2CCC3(CC2)COc2ccccc23)c1Cl,177 °C
8,Cc1nn(-c2cncc(F)c2)cc1[N+](=O)[O-],90 to 92 °C
9,Cc1oc(-c2ccccc2)nc1CCOc1ccc(CCC#N)cn1,105 to 106 °C
10,COc1ccc(C(=O)C=Cc2cccnc2)cc1,113 to 114 °C
11,CC(=O)N1CCc2cc(C[C@@H](C)NCCOc3ccccc3OCC(F)(F)F)cc(C(N)=O)c21,144 to 146 °C
12,COCOc1c(-c2ccccc2)sc2cnccc12,55 to 56 °C
13,O=C(O)c1nc2cc(N3CCOCC3)c([N+](=O)[O-])cc2[nH]c1=O,214 °C
14,COc1cc(OCc2ccccn2)ccc1/C=C/c1cc(/C=C/c2ccc3nccnc3c2)[nH]n1,205 to 213 °C
15,NC1Cc2ccccc2CN(CC(=O)O)C1=O (configuration not stated),266 to 268 °C
16,Cc1oc(-c2ccccc2)nc1COc1ccc(COc2ncccc2C=CC(=O)O)cc1,174 to 175 °C
17,CN1CCc2c(C3=CC(=O)CCC3)c(F)cc3c(=O)c(C(=O)O)cn1c23,> 300 °C
18,c1ccc2c(c1)NCCc1nccn1-2,119 to 122 °C
19,O=[N+]([O-])c1ccc(SCCCCl)cc1,50 to 52 °C

# More lines, now with the values ahead:
row,melting point,SMILES
1,79 to 82 °C,CC(C)(C)OC(=O)NC(=N)NC(=O)c1cccc(P(c2ccccc2)c2ccccc2)c1
2,271 °C,CCOC(=O)c1c[nH]c2ccc(C(=O)c3c(C)c(OC)c4ccccn34)cc2c1=O
3,130 to 133 °C,O=C(CCl)Nc1c([N+](=O)[O-])cnn1-c1c(Cl)cc(C(F)(F)F)cc1Cl
4,102 to 104 °C,"CC(Sc1cnn(C(C)(C)C)c(=O)c1Cl)c1ccc(C(C)(C)C)cc1 (single isomer, unassigned; (+))"
5,123 to 137 °C,O=C(c1ccc(F)cc1)C1CCN(CCN(C(=O)c2ccc([N+](=O)[O-])cc2)c2cccc(C(F)(F)F)c2)CC1
6,107 to 114 °C,O=C(CCCCN1CCOCC1)NNC(=O)N1Cc2ccccc2Oc2ccc(Cl)cc21
7,195 to 197 °C,O=C1COc2cc(NC(=O)C(=O)N3CCC(C(O)c4ccccc4)CC3)ccc2N1 (configuration not stated)
8,158 to 161 °C,COc1cc2ncnc(N3CCC(CN4CCCN(C(C)C)S4(=O)=O)CC3)c2cc1OC
9,136 to 139 °C,CC(C)(C)NC(=O)C1CC(C)(C)NC(C)(C)C1=NO (configuration not stated)
10,54 to 56 °C,CN(C)Cc1cc(C(C)(C)C)cc(C(C)(C)C)c1O
11,129 to 130 °C,Cc1oc(C2CC2)nc1COc1ccc(CC(OC(C)C)C(=O)O)c2ccccc12 (configuration not stated)
12,137 to 141 °C,CCN1C(=O)C(C)(C)C(=O)N(C)c2cc(CN(CCn3ccc4oc(C)cc4c3=O)Cc3ccnnc3)ccc21
13,85 to 88 °C,Cc1ccc(N2CCN(C(=O)NCCN(C)C)CC2)cc1
14,180 to 182 °C,CCOC(=O)N1C(=O)N(C(=O)OCC)C2(C1=O)C(=O)N(Cc1ccc(Cl)c(Cl)c1)c1ccccc12 (configuration not stated)
15,101 to 102 °C,CCCc1nn(-c2ccc(C(F)(F)F)cn2)cc1CCCOc1ccc(CC(=O)O)cc1
16,102 to 104 °C,CC(C)(C1OCCO1)C(O)(COc1ccc(F)cc1)Cn1cncn1 (configuration not stated)
17,161 to 164 °C,CCCCN(C(=O)c1cc(C(C)(C)C)c(O)c(C(C)(C)C)c1)C1CC(C)(C)N(OC(C)=O)C(C)(C)C1
18,100 to 101 °C,CCOC(=O)c1c2ccc(Cl)cc2c(-c2ccccc2)n1CCCC(C)C1OCCO1 (configuration not stated)

row,melting point,SMILES
1,208 to 210 °C,COCCNc1nc(-n2ccnc2)nc2ccc(C(C)=O)cc12
2,76.5 to 77.5 °C,CC(=O)OCC1=C(c2ccccc2)C(=O)N(C(C)(C)C(=O)Nc2cccc(C(F)(F)F)c2)CO1
3,103 to 105 °C,CC(=O)N1c2c(ccn3c(C)c(C)nc23)[C@@H](O)[C@H](OC(=O)C(C)(C)C)[C@H]1c1ccccc1
4,51 to 53 °C,COc1ccc2cc(CCC3(C)OCCO3)cc(F)c2c1
5,100 to 101 °C,CCOC(=O)Cc1ccc2cc(Br)ccc2n1
6,171 to 172 °C,CC1(CNC(=O)OCc2ccccc2)Cn2cc([N+](=O)[O-])nc2O1 (configuration not stated)
7,120 °C,CC(C)(C)OC(=O)c1[nH]c2cc(Cl)cc(Cl)c2c1C=C1CON(c2ccccc2)C1=O
8,157 to 160 °C,CC(C)(C)c1cc(-c2ccc([N+](=O)[O-])cc2)cc(C(C)(C)C)c1O
9,90 to 93 °C,CCCc1nc(C(C)(C)O)c(C(=O)OCc2oc(=O)oc2C)n1Cc1ccc(-c2ccccc2C(=O)O)cc1
10,68 °C,COc1ccc(S(=O)(=O)C(C)(Cc2ccc(OCCN3CCCCCC3)cc2)C(=O)NO)cc1 (configuration not stated)
11,146 to 147 °C,CCO/C(=N/O)C1Cc2cc(C(=O)CC)c(O)c(Cl)c2O1 (configuration not stated)
12,136 to 138 °C,O=C(CSCCOc1ccccc1)NNC(=O)c1ccc(Cl)nc1
13,178 to 179 °C,CC[C@H](C)[C@H](NC(=O)OC(C)(C)C)C(=O)N[C@H](C(=O)N[C@@H](CC1CCCCC1)[C@@H](O)[C@@H](O)CC(C)C)[C@@H](C)CC
14,79 to 82 °C,CCOc1ccc(C(c2ccc(C(C)(C)C)cc2)C(C)[N+](=O)[O-])cc1 (configuration not stated)
15,134 to 137 °C,CCCCCNc1nc(SC)[nH]c2nccc1-2
16,195 to 197 °C,COC(=O)CC1Sc2sc(S(N)(=O)=O)cc2NC1=O (configuration not stated)
17,105 to 107 °C,CCCCCCCNC(=O)Nc1c(F)cc(F)cc1CCc1ccc(CC(C)(C)C)cc1
18,138 to 139 °C,CC(=O)OC1C(CO)OC(n2cnc3c(N)ncnc32)C1OC(C)=O (configuration not stated)
